Tested on: MV4; 11
Experiment: LDH release assay
Assay type: cell-based
Conditions: Homo sapiens; MV4;11, 48 h
Description: Identification of tumor types that are the most sensitive to the KSP inhibitors of the present invention can be accomplished using an unbiased approach that uses several cell-based assays. The assays chosen were as follows: • CellTiter-Glo®. This is an assay designed to measure ATP concentration in a cell culture, and can be correlated to cell number. Briefly CellTiter-Glo® (Promega Corporation) is a homogeneous method using the single CellTiter-Glo® reagent to detect ATP wherein ATP in the assay drives the activity of a thermostable luciferase to create a luminescent signal which can then be measured and correlated with the number of viable cells. Briefly, for adherent cells, 1,000 to 5,000 cells/well were plated in 96-well plates (100 μl/well) and let to adhere for 24 hours before being treated with drug. For non-adherent cells, 1,000 to 10,000 cells/well were plated in 96-well plates (100 μl/well) and immediately treated with drug. Drug dilutions were prepared in DMSO at 1000 times the final concentration. These dilutions were then diluted 1/100 in growth media before being added to the cells (11 μl/well) to achieve the desired final concentration. After 48 h in a 37° C. tissue culture incubator, the plates were processed for the CellTiter-Glo®assay according to the manufacturer's instructions. Protocol for a 72 hour cell proliferation assay: The 72 hour assay was performed the same way as the 48 hour assay except for the following modifications: For adherent cells, 500 to 5,000 cells/well were plated in 96-well plates (90 μl/well cell growth media) and left to adhere for 24 hours before being treated with drug. For non-adherent cells, 1,000 to 10,000 cells/well were plated in 96-well plates (90 μl/well cell growth media) and immediately treated with drug. Data values presented represent the concentration of test compound required for a 50% reduction in growth. • LDH release. […] The enzymatic reaction is coupled to a chemical reaction that uses a tetrazolium salt to form a formazan that is red and can be detected by its absorbance at 490 nm. […]

CC(C)(C)[C@H](c1nc(-c2cc(F)ccc2F)cn1Cc1ccccc1)N(CC[C@H](N)CF)C(=O)CO [Compound IIa]
EC50: 30 pM

Reference: patent publication US8252832B2, “Kinesin inhibitors as cancer therapeutics” (Novartis AG, priority 2007, dated 2012)
